# Test results taken from the PolyMetriX glass transition set.
# ± gives the standard deviation of the reports.
row,Structure (SMILES),glass transition temperature [°C]
1,*Oc1c(C)cc(C2(c3cc(C)c(Oc4ccc(C(=O)c5cccc(C(=O)c6ccc(*)cc6)c5)cc4)c(C)c3)CCC3CCCCC3C2)cc1C (repeat unit),224.00
2,*c1ccc(Sc2cc3c(cc2Sc2ccc(N4C(=O)c5ccc(Oc6ccc7c(c6)C(=O)N(*)C7=O)cc5C4=O)cc2)C(=O)N(c2ccc(CC)cc2)C3=O)cc1 (repeat unit),271.00
3,*Oc1cccc2ccc(Oc3ccc(NC(=O)c4ccc(S(=O)(=O)c5ccc(C(=O)Nc6ccc(*)cc6)cc5)cc4)cc3)cc12 (repeat unit),259.00
4,*c1cccc(N2C(=O)c3ccc(Oc4ccc(C(=O)c5ccc(Oc6ccc7c(c6)C(=O)N(*)C7=O)cc5)cc4)cc3C2=O)c1 (repeat unit),239.00
5,*C(=O)Nc1ccc(Oc2cccc(NC(=O)c3ccc4c(c3)C(=O)N(c3ccc(-c5sc(-c6ccc(N7C(=O)c8ccc(*)cc8C7=O)cc6)c(-c6ccccc6)c5-c5ccccc5)cc3)C4=O)c2)cc1 (repeat unit),315.00
6,*/C=C/C1CC(*)C(C(=O)OC(C)(C)C)C1C(=O)OC(C)(C)C (repeat unit),83.40
7,*CCCCCCCCCCOc1ccc(/N=C/c2ccc(/C=N/c3ccc(O*)cc3C)cc2)c(C)c1 (repeat unit),77.60
8,*CC(COCC=C)O* (repeat unit) [poly(allyl glycidyl ether)],-35.33 ± 57
9,*CC(*)(CC(=O)OCCc1ccccc1)C(=O)OCCc1ccccc1 (repeat unit),45.00
10,*Oc1ccc(S(=O)(=O)c2ccc(Oc3ccc(C4CCCC(C(C)c5ccc(*)cc5)C4)cc3)cc2)cc1 (repeat unit),230.00
11,*CC(*)N (repeat unit),57.00
12,*Oc1ccc(C2(c3ccc(Oc4ccc(C(=O)c5c(C(=O)c6ccc(*)cc6)c(-c6ccc(F)cc6)c(-c6ccc(F)cc6)c(-c6ccc(F)cc6)c5-c5ccc(F)cc5)cc4)cc3)c3ccccc3-c3ccccc32)cc1 (repeat unit),293.00
13,*CCC(C)C(C)CCNC(=O)c1cc(C(=O)N*)cc(C(C)(C)C)c1 (repeat unit),173.00
14,*Nc1ccc(C(c2ccc(NC(=O)c3cccc(C(*)=O)c3)cc2)(P2(=O)Oc3ccccc3-c3ccccc32)P2(=O)Oc3ccccc3-c3ccccc32)cc1 (repeat unit),230.00
15,*CC(O)COC(=O)CCCCCCCCC(=O)OCC(O)COc1ccc(C(=O)Oc2ccc(O*)cc2)cc1 (repeat unit),36.00
16,*O[Si](*)(C)CCC(F)(F)C(F)(F)C(F)(F)C(F)(F)F (repeat unit),-75.00
17,*c1ccc2c(c1)C(=O)N(c1cccc(C(=O)Nc3ccc(Oc4ccc(C(c5ccc(Oc6ccc(NC(=O)c7cccc(N8C(=O)c9ccc(C(*)(C(F)(F)F)C(F)(F)F)cc9C8=O)c7)cc6)cc5)(C(F)(F)F)C(F)(F)F)cc4)cc3)c1)C2=O (repeat unit),266.00
18,*Oc1ccc(S(=O)(=O)c2ccc(Oc3ccc(C(=C)c4ccc(*)cc4)cc3)cc2)cc1 (repeat unit),167.00
19,*c1cccc(P(=O)(c2ccc(C(F)(F)F)cc2)c2cccc(-n3c(=O)c4c(-c5ccc(C(F)(F)F)cc5)c5c(=O)n(*)c(=O)c5c(-c5ccc(C(F)(F)F)cc5)c4c3=O)c2)c1 (repeat unit),324.00
20,*C(=O)c1cccc(C(=O)c2ccc3c(c2)C(=O)N(c2cccc(N4C(=O)c5ccc(*)cc5C4=O)c2)C3=O)c1 (repeat unit),259.50
21,*c1cc(CCCCCC)c(*)s1 (repeat unit),15.2 ± 7.3
22,*CCCCCCOC(=O)OCCCOC(=O)OCCCCCCOc1ccc(Oc2ccc(O*)cc2)cc1 (repeat unit),-6.00
23,*c1ccc2c(c1)C(=O)N(c1ccc(Oc3ccc(C(c4ccc(Oc5ccc(N6C(=O)c7ccc(C(*)(C(F)(F)F)C(F)(F)F)cc7C6=O)cc5)cc4)(C(F)(F)F)C(F)(F)F)cc3)cc1)C2=O (repeat unit),247.00 ± 16

row,Structure (SMILES),glass transition temperature [°C]
1,*Nc1ccc(NC(=O)c2ccc(NC(=O)CCCCCCCCCCC(=O)Nc3ccc(C(*)=O)cc3)cc2)cc1C(=O)OCCCCCCCCCCCCCCCC (repeat unit),199.50
2,*Oc1ccc(C(C)(C)c2ccc(OC(=O)CC(C)CCC(*)=O)cc2)cc1 (repeat unit),56.00
3,*CC(COCCOCCOC)O* (repeat unit),-57.00
4,*CC(*)C(=O)c1ccc(C)c(C)c1 (repeat unit),42.00
5,*CCCCCCCCCCC(=O)NCCc1ccc(CCNC(=O)CCCCCCCCCCS*)cc1 (repeat unit),58.00
6,*C(=O)Nc1cccc(Oc2ccc(C(=O)c3ccc(Oc4cccc(NC(=O)c5ccc(*)nc5)c4)cc3)cc2)c1 (repeat unit),154.00
7,*CCCCCCOC(=O)OCCCCCOC(=O)OCCCCCCOc1ccc(Oc2ccc(O*)cc2)cc1 (repeat unit),-11.00
8,*CC(*)OC(=O)C(F)(F)C(F)(F)C(F)(F)C(F)(F)C(F)(F)C(F)(F)C(F)(F)C(F)(F)C(F)(F)F (repeat unit),-18.00
9,*C(=O)Nc1cccc(Oc2cccc(Oc3cccc(Oc4cccc(Oc5cccc(NC(=O)c6ccc7c(c6)C(=O)N(c6cccc(Oc8cccc(Oc9cccc(N%10C(=O)c%11ccc(*)cc%11C%10=O)c9)c8C#N)c6)C7=O)c5)c4C#N)c3)c2C#N)c1 (repeat unit),193.00
10,*CCOC(=O)Nc1ccc(Cc2ccc(NC(=O)OCCOc3ccc(C4(c5ccc(O*)cc5)c5ccccc5-c5ccccc54)cc3)cc2)cc1 (repeat unit),152.00
11,*[Si](*)(CCCC)CCCCC (repeat unit),-26.00
12,*CC(C[N-][N+]#N)(C[N-][N+]#N)CO* (repeat unit),-30.00
13,*C(=O)Nc1ccc(Oc2ccc(NC(=O)c3ccc4c(c3)C(=O)N(c3ccc(S(=O)(=O)c5ccc(N6C(=O)c7ccc(*)cc7C6=O)cc5)cc3)C4=O)cc2)cc1 (repeat unit),281.00
14,*CC(C)CNC(=O)O* (repeat unit),40.00
15,*O[Si](C)(C)CCC/N=C1C=C(O)/C(=N\CCC[Si](*)(C)C)C=C\1O (repeat unit),70.34
16,*CC(C)(CCC)COC(=O)c1ccc(-c2ccc(C(=O)O*)cc2)cc1 (repeat unit),95.00
17,*C(=O)Nc1ccc(Oc2cccc(Oc3ccc(NC(=O)c4ccc5c(c4)C(=O)N(c4ccc(Oc6cccc(Oc7ccc(N8C(=O)c9ccc(*)cc9C8=O)cc7)c6C#N)cc4)C5=O)cc3)c2)cc1 (repeat unit),217.00
18,*C1C(=O)N(CCOc2ccc(-c3ccc(C#N)cc3)cc2)C(=O)C1* (repeat unit),150.00
19,*Oc1ccc(OC(=O)c2ccc(C(*)=O)cc2)cc1 (repeat unit),267.00
20,*Oc1ccc(C(C)(C)c2ccc(Oc3ccc(C(O)C(O)c4ccc(*)cc4)cc3)cc2)cc1 (repeat unit),151.00
21,*CC(C)(CO*)COCCOCCOCCOC (repeat unit),-18.00
22,*CC(*)C(=O)Oc1ccc(C(=O)OCc2ccccc2)cc1 (repeat unit),16.2
